According to patent US11591658B2, “Methods for sub-typing and treating cancer” (HI-STEM gGmbH, priority 2017, dated 2023):

Experiments:
[1] = test system: AML cells with long-term BCAT1-overexpression; experiment: Sensitivity of long-term BCAT1-overexpressing AML cells to daunorubicin; type: cell-based; conditions: FIG. 5i
Description: AML patient survival is usually associated with sensitivity to standard chemotherapy^23,24. […] Along these lines, BCAT1 expression was consistently higher (on average 6.6-fold) in the relapse versus the paired diagnostic sample (FIG. 5j).

EGLN1 = molecular target: T1, EGLN1 (Homo sapiens, UniProt Q9GZT9); experiment: HIF1 protein levels in BCAT1 knockdown cells treated with cobalt chloride; type: cell-based; conditions: BCAT1 knockdown cells (HL-60), cobalt chloride given to inhibit EGLN1 activity, FIG. 4g
T1 construct: endogenous in cells; host or cells: HL-60 AML cells transduced with shBCAT1 (BCAT1 knockdown)
T1 sequence (Q9GZT9 whole entry): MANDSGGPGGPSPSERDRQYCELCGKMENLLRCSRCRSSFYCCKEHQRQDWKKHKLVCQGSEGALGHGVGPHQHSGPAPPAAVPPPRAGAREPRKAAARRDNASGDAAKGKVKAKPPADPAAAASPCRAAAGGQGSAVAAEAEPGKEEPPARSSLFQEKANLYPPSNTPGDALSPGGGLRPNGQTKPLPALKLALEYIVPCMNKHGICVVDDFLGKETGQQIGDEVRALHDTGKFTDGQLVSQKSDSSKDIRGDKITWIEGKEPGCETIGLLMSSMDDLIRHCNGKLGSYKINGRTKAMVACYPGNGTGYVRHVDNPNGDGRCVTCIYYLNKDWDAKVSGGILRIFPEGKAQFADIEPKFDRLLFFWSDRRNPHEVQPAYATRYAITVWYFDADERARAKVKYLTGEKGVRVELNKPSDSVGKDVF
Description: To gain additional mechanistic insight into cellular pathways affected by BCAT1, we utilized the HL-60 AML cell line. […] Western blot analysis confirmed HIF1 as downstream target of BCAT1 (FIG. 4e), and decreased HIF1 levels were due to enhanced protein degradation since the relative amount of hydroxylated Proline564 was increased after BCAT1 knockdown (FIG. 4f), as intracellular αKG is a co-factor of EGLN1 activity^14. […] Finally, lentiviral overexpression of HIF1 as well as shRNA-mediated knockdown of EGLN1 was sufficient to rescue the proliferation and survival defect after BCAT1-KD (FIG. 4h, i). Together, these analyses place BCAT1 upstream of HIF1 mediating its effect via the αKG-dependent activation of EGLN1. […] Knockdown of HIF1 is sufficient to abrogate LSC function^16.

COc1cccc2c1C(=O)c1c(O)c3c(c(O)c1C2=O)C[C@@](O)(C(C)=O)C[C@@H]3O[C@H]1C[C@H](N)[C@H](O)[C@H](C)O1 [daunorubicin]
resistance to daunorubicin [1]: increased resistance

[Cl][Co][Cl] [cobalt chloride]
HIF1 protein levels (EGLN1): attenuated decrease of HIF1 protein levels
